Common to all, as to format: physicochemical
A short description of data set [1]: Solubility in water of the tested materials. The settings on record: neat material. From the text:
In an attempt to understand what chemical properties of the tested materials are critical to improving friability, we looked at some of the physical properties of the tested materials.

A short description of data set [2]: Tablet hardness (Schuleuniger-4M tablet hardness tester). The settings on record: denture cleanser tablet (Table 1 formula, citric acid), additive 0.6%. As to the method:
Tablets were compressed using ⅞″ round tooling on a Stokes F press. Compression force was adjusted to give the hardest possible tablet (limit set by capability of the press or by the appearance of tablet capping).
Hardness was measured using a Schuleuniger-4M tablet hardness tester.
Three (3) gram tablets were compressed using ⅞″ round tooling on a Stokes F press. Compression force was adjusted to give the hardest possible tablet (limit set by capability of the press or by appearance of tablet capping).
3.3 gram tablets were compressed using ⅞″ round tooling on a Stokes F press. As above, compression force was adjusted to give the hardest possible tablet (limit set by capability of the press or by appearance of tablet capping).
2.5 gram tablets were compressed using ⅞″ round tooling on a Stokes F press. As above, compression force was adjusted to give the hardest possible tablet (limit set by capability of the press or by appearance of tablet capping).

Data set [3] can be described thus: Tablet friability, modified USP-NF <1216> (Erweka TA, 10 tablets, 25 rpm; % unbroken tablets). On the procedure:
Friability was measured in a manner similar to that described in the USP-NF, Chapter <1216>. The USP-NF method was modified in that the number of tablet used and the method of calculation were changed as indicated here. Ten (10) tablets were placed in an Erweka TA friability apparatus. The tablets were tumbled at 25 rpm for the indicated number of minutes. The percentage of unbroken tablets is reported.

With `OCC(O)CO` [Glycerin], the “Solubility in Water (w/w %)” value in data set [1] was 100% w/w %. Further, the Hardness in data set [2] is 9.5 kp. In data set [3] (denture cleanser tablet (Table 1 formula, citric acid), additive 0.6%, tumbled 2 min), the “Friability (% whole tablets) 2 min” value stood at 100 % whole tablets. Also, in data set [3] (denture cleanser tablet (Table 1 formula, citric acid), additive 0.6%, tumbled 4 min), the “Friability (% whole tablets) 4 min” value came out at 100 % whole tablets. Further, the “Friability (% whole tablets) 6 min” value in data set [3] (denture cleanser tablet (Table 1 formula, citric acid), additive 0.6%, tumbled 6 min) is listed as 100 % whole tablets. Also, the “Friability (% whole tablets) 8 min” value in data set [3] (denture cleanser tablet (Table 1 formula, citric acid), additive 0.6%, tumbled 8 min) is on record as 100 % whole tablets. Moreover, in data set [3] (denture cleanser tablet (Table 1 formula, citric acid), additive 0.6%, tumbled 10 min), the “Friability (% whole tablets) 10 min” value was 100 % whole tablets. Besides, in data set [3] (summary for denture cleanser tablet (Table 1 formula), material at 0.6%), the Friability improvement entry was “Yes”.

The record behind these values is patent publication US11058642B2, “Tablets with improved friability” (TOWER LABORATORIES LTD, priority 2013, dated 2021).
